Data as given in ChEMBL document CHEMBL1287684, “5-(pyridinon-1-yl)indazoles and 5-(furopyridinon-5-yl)indazoles as MCH-1 antagonists” (Bioorg Med Chem Lett, 2010).
Values after ≈ are worked out from the molar mass of the structure shown.

How the values were obtained:
[1] = biological target: T1, Melanin-concentrating hormone receptor 1 (Homo sapiens, UniProt Q99705); assay: Displacement of [3H]4-(benzyloxy)-1-(1-(2-(pyrrolidin-1-yl)ethyl)-1H-indazol-5-yl)pyridin-2(1H)-one from MCH-1 receptor expressed in CHO-K1 cells; assay type: cell-based
[2] = biological target: Voltage-gated inwardly rectifying potassium channel KCNH2 (Homo sapiens, UniProt Q12809); assay: Inhibition of human ERG expressed in HEK cells by mini-patch clamp assay
[3] = biological target: T1, Melanin-concentrating hormone receptor 1; assay: Antagonistic activity at MCH-1 receptor expressed in CHO-K1 cell assessed as inhibition of MCH-induced calcium release; assay type: functional, cell-based
[4] = Ratio of drug level in brain to plasma in mouse at 10 mg/kg after 6 hrs; assay type: ADME, organism-based; parameters: dose 10 mg/kg; conditions: read-out: BPR
[5] = Plasma concentration in mouse at 10 mg/kg after 6 hrs; assay type: ADME, organism-based; parameters: dose 10 mg/kg
[6] = test system: Mus musculus; assay: Antiobesity activity in diet-induced obese C57BL/6J mouse model assessed as reduction of body weight at 30 mg/kg, po qd for 5 days; assay type: functional; parameters: scale not given: the % may be the effect or the level left
[7] = Drug level in mouse brain at 10 mg/kg after 6 hrs; assay type: ADME, organism-based; parameters: dose 10 mg/kg; conditions: read-out: Drug uptake
[8] = Aqueous solubility in PBS at pH 7.4; assay type: physicochemical
[9] = biological target: Cytochrome P450 3A4 (Homo sapiens, UniProt P08684); assay: Inhibition of CYP3A4; assay type: ADME
[10] = Half life in mouse liver microsomes; assay type: ADME, Microsome
[11] = Half life in human liver microsomes; assay type: ADME, Microsome
[12] = test system: Mus musculus; assay: Antiobesity activity in diet-induced obese C57BL/6J mouse model assessed as reduction of body weight at 30 mg/kg, po bid for 5 days; assay type: functional; parameters: scale not given: the % may be the effect or the level left
[13] = biological target: T2, Cytochrome P450 1A2 (Homo sapiens, UniProt P05177); assay: Inhibition of CYP1A2; assay type: ADME
T2 sequence (P05177 whole entry): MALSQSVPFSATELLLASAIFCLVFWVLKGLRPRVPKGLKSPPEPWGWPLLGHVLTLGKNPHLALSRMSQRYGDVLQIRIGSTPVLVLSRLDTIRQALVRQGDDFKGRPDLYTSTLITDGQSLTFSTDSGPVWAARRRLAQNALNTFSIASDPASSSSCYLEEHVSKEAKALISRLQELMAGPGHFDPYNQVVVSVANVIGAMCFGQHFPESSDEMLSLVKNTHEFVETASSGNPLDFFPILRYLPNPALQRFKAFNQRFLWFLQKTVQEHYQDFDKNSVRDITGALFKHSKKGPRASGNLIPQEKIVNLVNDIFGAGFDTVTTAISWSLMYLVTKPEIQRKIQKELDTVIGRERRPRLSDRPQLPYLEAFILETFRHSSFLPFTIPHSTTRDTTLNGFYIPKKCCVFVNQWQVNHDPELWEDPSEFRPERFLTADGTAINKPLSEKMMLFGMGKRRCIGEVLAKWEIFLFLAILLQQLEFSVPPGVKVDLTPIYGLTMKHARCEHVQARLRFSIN

[14] = Drug level in mouse brain at 30 mg/kg after 6 hrs; assay type: ADME, organism-based; parameters: dose 30 mg/kg; conditions: read-out: Drug uptake
[15] = Plasma concentration in mouse at 30 mg/kg after 6 hrs; assay type: ADME, organism-based; parameters: dose 30 mg/kg
[16] = Ratio of drug level in brain to plasma in mouse at 30 mg/kg after 6 hrs; assay type: ADME, organism-based; parameters: dose 30 mg/kg; conditions: read-out: BPR
[17] = biological target: Cytochrome P450 2D6 (Homo sapiens, UniProt P10635); assay: Inhibition of CYP2D6; assay type: ADME
[18] = biological target: Cytochrome P450 2C19 (Homo sapiens, UniProt P33261); assay: Inhibition of CYP2C19; assay type: ADME
[19] = biological target: Cytochrome P450 2C9 (Homo sapiens, UniProt P11712)
[20] = biological target: T3, Cytochrome P450 2B6 (Homo sapiens, UniProt P20813); assay: Inhibition of CYP2B6; assay type: ADME
T3 sequence (P20813 whole entry): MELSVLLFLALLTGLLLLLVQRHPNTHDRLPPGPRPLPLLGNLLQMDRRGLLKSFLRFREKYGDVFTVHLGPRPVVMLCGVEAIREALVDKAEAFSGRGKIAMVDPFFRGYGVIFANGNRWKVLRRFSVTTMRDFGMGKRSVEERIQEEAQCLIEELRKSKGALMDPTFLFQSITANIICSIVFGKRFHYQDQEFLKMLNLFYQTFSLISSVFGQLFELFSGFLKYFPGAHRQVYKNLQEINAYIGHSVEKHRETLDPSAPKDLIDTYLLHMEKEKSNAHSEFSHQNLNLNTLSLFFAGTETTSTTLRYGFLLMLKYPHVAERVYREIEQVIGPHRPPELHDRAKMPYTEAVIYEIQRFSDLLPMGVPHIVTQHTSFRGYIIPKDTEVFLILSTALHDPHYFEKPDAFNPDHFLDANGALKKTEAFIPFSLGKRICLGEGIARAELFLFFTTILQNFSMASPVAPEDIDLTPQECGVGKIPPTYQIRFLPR

Chain of Voltage-gated inwardly rectifying potassium channel KCNH2 (Q12809 whole entry): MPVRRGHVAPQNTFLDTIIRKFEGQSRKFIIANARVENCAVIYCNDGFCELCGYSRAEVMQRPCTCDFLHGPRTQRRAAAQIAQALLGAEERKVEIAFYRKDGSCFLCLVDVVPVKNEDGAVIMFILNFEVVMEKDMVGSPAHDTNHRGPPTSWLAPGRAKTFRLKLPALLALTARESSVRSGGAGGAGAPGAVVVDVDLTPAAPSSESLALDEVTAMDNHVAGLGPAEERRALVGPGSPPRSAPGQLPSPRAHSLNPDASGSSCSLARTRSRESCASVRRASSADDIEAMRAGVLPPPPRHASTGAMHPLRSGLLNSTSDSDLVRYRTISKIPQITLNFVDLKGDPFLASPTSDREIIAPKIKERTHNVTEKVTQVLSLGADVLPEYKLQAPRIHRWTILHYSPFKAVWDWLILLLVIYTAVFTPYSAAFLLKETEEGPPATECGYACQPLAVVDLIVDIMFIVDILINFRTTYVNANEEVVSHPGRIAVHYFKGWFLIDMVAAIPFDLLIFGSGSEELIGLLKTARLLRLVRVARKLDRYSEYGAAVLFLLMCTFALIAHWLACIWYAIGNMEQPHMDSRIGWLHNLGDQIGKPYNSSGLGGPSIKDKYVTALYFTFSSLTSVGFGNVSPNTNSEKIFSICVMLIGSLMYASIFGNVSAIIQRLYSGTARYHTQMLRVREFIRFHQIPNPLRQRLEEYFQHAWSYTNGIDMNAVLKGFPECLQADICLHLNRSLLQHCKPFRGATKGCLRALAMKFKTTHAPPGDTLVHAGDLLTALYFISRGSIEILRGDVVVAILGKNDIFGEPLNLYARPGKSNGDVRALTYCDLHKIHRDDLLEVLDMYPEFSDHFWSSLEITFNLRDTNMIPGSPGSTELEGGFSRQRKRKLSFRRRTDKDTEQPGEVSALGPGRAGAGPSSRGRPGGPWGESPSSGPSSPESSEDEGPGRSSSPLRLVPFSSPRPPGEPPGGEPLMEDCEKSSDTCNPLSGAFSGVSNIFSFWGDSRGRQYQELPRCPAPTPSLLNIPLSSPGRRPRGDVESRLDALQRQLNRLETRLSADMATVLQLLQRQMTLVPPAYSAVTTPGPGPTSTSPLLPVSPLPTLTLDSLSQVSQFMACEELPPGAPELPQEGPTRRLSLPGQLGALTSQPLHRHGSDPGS
Chain of Cytochrome P450 3A4 (P08684 whole entry): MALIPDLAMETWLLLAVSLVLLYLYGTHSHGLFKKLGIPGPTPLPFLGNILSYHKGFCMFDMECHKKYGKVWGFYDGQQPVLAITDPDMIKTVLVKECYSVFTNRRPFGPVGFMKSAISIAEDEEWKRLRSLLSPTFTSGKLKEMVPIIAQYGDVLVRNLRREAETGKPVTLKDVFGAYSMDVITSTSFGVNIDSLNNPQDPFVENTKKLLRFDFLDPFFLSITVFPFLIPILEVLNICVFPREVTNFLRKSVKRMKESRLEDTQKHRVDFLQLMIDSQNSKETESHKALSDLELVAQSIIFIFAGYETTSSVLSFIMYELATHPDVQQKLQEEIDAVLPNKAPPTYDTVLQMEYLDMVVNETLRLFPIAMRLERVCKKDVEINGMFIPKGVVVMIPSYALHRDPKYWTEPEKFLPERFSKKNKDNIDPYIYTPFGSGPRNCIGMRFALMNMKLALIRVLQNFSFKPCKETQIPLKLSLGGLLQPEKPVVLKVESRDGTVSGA
T1 sequence (Q99705 whole entry): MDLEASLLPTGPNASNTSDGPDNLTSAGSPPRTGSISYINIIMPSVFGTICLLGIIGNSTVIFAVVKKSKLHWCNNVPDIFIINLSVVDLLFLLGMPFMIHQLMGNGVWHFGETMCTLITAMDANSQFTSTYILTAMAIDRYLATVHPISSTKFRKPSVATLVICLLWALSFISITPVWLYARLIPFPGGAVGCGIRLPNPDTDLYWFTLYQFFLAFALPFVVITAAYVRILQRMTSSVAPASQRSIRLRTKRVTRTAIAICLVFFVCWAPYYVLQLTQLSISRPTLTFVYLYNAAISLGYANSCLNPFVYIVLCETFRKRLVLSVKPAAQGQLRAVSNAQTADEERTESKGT
Chain of Cytochrome P450 2C19 (P33261 whole entry): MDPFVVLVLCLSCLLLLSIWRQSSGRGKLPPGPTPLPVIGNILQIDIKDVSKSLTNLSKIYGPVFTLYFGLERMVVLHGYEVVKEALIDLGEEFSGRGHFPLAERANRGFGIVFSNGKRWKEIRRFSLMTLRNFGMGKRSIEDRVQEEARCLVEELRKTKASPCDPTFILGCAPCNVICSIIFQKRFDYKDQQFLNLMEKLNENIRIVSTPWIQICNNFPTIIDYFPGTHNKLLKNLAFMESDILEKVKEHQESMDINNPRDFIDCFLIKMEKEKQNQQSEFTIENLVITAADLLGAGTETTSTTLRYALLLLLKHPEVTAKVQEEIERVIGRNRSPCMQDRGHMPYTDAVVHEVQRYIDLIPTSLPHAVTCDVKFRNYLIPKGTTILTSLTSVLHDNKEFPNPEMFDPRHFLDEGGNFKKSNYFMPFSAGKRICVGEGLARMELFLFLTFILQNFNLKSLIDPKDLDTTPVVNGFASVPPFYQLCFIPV
Chain of Cytochrome P450 2C9 (P11712 whole entry): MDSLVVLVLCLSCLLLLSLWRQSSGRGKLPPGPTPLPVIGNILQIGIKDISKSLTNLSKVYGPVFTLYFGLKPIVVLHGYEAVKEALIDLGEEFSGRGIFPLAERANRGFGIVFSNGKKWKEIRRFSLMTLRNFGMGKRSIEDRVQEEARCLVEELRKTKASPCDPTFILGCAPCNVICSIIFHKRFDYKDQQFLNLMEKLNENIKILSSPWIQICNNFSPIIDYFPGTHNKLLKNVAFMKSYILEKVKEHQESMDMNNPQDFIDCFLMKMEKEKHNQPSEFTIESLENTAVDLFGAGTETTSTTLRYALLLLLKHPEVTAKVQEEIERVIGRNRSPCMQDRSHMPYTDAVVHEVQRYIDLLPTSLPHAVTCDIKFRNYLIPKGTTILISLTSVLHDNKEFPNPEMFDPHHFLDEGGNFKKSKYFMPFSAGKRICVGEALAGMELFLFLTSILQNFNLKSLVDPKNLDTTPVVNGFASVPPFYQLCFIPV
Chain of Cytochrome P450 2D6 (P10635 whole entry): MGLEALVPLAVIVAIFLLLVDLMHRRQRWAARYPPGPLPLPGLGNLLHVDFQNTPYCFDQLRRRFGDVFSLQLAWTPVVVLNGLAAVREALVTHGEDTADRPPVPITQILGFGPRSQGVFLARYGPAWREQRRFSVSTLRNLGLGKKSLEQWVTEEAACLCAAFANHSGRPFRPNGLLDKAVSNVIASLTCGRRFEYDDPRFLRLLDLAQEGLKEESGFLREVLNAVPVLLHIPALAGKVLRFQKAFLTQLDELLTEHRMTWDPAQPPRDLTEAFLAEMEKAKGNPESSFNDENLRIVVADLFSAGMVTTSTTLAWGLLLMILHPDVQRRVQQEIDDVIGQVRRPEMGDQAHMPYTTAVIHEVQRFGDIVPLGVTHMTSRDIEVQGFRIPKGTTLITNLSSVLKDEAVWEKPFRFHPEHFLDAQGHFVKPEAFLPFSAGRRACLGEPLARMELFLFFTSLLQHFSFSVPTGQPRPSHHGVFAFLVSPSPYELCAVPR

Row | Ki [1] | Structure (SMILES) | IC50 [2] | further results
1 | 24.3 nM | O=c1cc(OCc2ccccc2)ccn1-c1ccc2c(cnn2CCN2CCNCC2)c1 |  | 
2 | 4.7 nM | CN(C)CCn1ncc2cc(-n3ccc(OCc4ccccc4)cc3=O)ccc21 | 1.8 µM | 
3 | 5.2 nM | O=c1c2cc(-c3ccc(Cl)cc3)oc2ccn1-c1ccc2c(cnn2CCN2CCCC2)c1 |  | IC50 [3]: 23 nM; Kp at 6 h [4]: 16; concentration at 6 h [5]: 141 ng/mL; Activity [6]: 4.5%; concentration at 6 h [7]: 2250 ng/g
4 | 12.6 nM | CN(C)CCCn1ncc2cc(-n3ccc(OCc4ccccc4)cc3=O)ccc21 | 1.4 µM | 
5 | 11.2 nM | COC[C@H]1CCCN1CCn1ncc2cc(-n3ccc(OCc4ccccc4)cc3=O)ccc21 | 0.8 µM | 
6 | 38 nM | O=c1c2cc(-c3cccc(Cl)c3)oc2ccn1-c1ccc2c(cnn2CCN2CCCC2)c1 |  | 
7 | 59 nM | O=c1c2cc(-c3ccccn3)oc2ccn1-c1ccc2c(cnn2CCN2CCCC2)c1 |  | 
8 | 37.7 nM | CN(C)CC(O)Cn1ncc2cc(-n3ccc(OCc4ccccc4)cc3=O)ccc21 (stereo not given) | 12.1 µM | 
9 | 12 nM | O=c1cc(OCc2ccccc2)ccn1-c1ccc2c(cnn2C[C@@H]2CCCN2)c1 | 2 µM | 
10 | 28 nM | O=c1c2cc(-c3ccccc3Cl)oc2ccn1-c1ccc2c(cnn2CCN2CCCC2)c1 |  | 
11 | 4.7 nM | O=c1cc(OCc2ccccc2)ccn1-c1ccc2c(cnn2CCN2CC[C@H](O)C2)c1 | 9 µM | solubility [8]: > 500 µM; IC50 [9]: 7.7 µM; IC50 [13]: > 10 µM; IC50 [17]: > 10 µM; half-life [10]: 433 min; half-life [11]: 289 min; Activity [12]: 3.3%; IC50 [18]: > 10 µM; IC50 [19]: > 10 µM; IC50 [20]: > 10 µM
12 | 1680 nM | O=c1c2cc(-c3ncccn3)oc2ccn1-c1ccc2c(cnn2CCN2CCCC2)c1 |  | 
13 | 6.1 nM | O=c1c2cc(-c3ccc(F)cc3)oc2ccn1-c1ccc2c(cnn2CCN2CCCC2)c1 |  | 

Second part, the compound before the results:

Row | Structure (SMILES) | Ki [1] | IC50 [2] | further results
14 | COc1cc(Cl)ccc1-c1cc2c(=O)n(-c3ccc4c(cnn4CCN4CCCC4)c3)ccc2o1 | 48 nM |  | 
15 | O=c1cc(OCc2ccccc2)ccn1-c1ccc2c(cnn2CC2=NCCN2)c1 | 22.6 nM | 8.5 µM | solubility [8]: 410 µM (≈ 164 µg/mL); IC50 [9]: 38 µM; half-life [10]: 580 min; half-life [11]: 260 min; Activity [12]: 3.5%
16 | O=c1c2cc(-c3ccc(Cl)cc3F)oc2ccn1-c1ccc2c(cnn2CCN2CCCC2)c1 | 4.2 nM |  | 
17 | O=c1cc(OCc2ccccc2)ccn1-c1ccc2c(cnn2CCN2CC3CC2CO3)c1 (stereo not given) | 17.3 nM | 16 µM | 
18 | O=c1cc(OCc2ccccc2)ccn1-c1ccc2c(cnn2CCN2CCCC2)c1 |  |  | solubility [8]: 492 µM (≈ 204 µg/mL); IC50 [9]: 10 µM; IC50 [13]: > 10 µM; half-life [10]: 695 min; IC50 [3]: 14 nM; half-life [11]: 303 min; concentration at 6 h [14]: 1480 ng/g; concentration at 6 h [15]: 2220 ng/mL; Kp at 6 h [16]: 0.7
19 | O=c1c2cc(-c3ccc(Cl)cc3Cl)oc2ccn1-c1ccc2c(cnn2CCN2CCCC2)c1 | 14 nM |  | 
20 | O=c1cc(OCc2ccccc2)ccn1-c1ccc2c(cnn2CCN2CCOCC2)c1 | 43.4 nM | > 30 µM | 
21 | O=c1cc(OCc2ccccc2)ccn1-c1ccc2c(cnn2CC2C[C@@H](O)CN2)c1 (stereo not given in full) | 33 nM | > 30 µM | 
22 | O=c1c2cc(-c3ccccc3)oc2ccn1-c1ccc2c(cnn2CCN2CCCC2)c1 | 9.7 nM |  | 
23 | CO[C@H]1CCN(CCn2ncc3cc(-n4ccc(OCc5ccccc5)cc4=O)ccc32)C1 | 9.4 nM |  | 
24 | CN1CCN=C1Cn1ncc2cc(-n3ccc(OCc4ccccc4)cc3=O)ccc21 | 30.4 nM |  | 
25 | O=c1cc(OCc2ccccc2)ccn1-c1ccc2c(cnn2CCN2CCC[C@@H]2CO)c1 | 3.1 nM | 2.3 µM | 
26 | CCCCn1ncc2cc(-n3ccc(OCc4ccccc4)cc3=O)ccc21 | > 5000 nM |  | 
